In the experiment the target is T1, tyrosinase (Agaricus bisporus, UniProt C7FF04).
T1 construct: purchased Sigma-Aldrich T3824
The experiment is described as follows: Tyrosinase enzymatic assay (L-tyrosine substrate, absorbance at 475 nm). The conditions noted are these: for Ki: Dixon plot, read-out: Ki (inhibition constant); for inhibition at 100 µM: compound concentration 100 μM, L-tyrosine substrate, triplicate, mean ± SD, read-out: Inhibition Rate (%) at 100 μM; for IC50: concentrations 3.1 to 100 μM, mean ± SD (n = 3). In kind it is biochemical.

The structures appear in SMILES notation. A value given as a limit tells only on which side of the number the result lay.

A word on the Ki: it is the dissociation constant of the complex between target and ligand, obtained from inhibition or displacement. In general, inhibition refers to how much of the control response was suppressed. Usually IC50 stands for the concentration that gives 50% inhibition.

T1 sequence (C7FF04 1-392 limits assumed): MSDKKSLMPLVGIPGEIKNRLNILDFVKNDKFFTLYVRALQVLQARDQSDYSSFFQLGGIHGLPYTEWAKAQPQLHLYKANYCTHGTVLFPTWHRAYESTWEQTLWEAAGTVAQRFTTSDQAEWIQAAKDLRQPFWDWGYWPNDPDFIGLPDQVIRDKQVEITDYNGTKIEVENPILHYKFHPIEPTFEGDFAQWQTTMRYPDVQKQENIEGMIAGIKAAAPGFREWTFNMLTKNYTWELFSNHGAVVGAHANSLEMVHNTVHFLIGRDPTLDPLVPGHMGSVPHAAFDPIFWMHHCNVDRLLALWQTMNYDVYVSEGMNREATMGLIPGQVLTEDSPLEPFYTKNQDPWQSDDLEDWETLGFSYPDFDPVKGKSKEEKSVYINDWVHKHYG

On to `COc1cc(C(=O)OCCCCN=C(N)N)cc(OC)c1OC` [Compound 1, 10-methoxy-leonurine], for which the inhibition constant Ki was determined as 1.6 µM, the inhibition at 100 µM is greater than 80% and the half-inhibitory concentration (IC50) was 7.4 ± 0.4 µM.

`COc1cc(C(=O)OCCCCNC(=N)N)cc(OC)c1O` [Compound 2, leonurine]: the Ki was 11.4 µM; the inhibition at 100 µM was greater than 80%; the midpoint of inhibition, the IC50, lay at 12.4 ± 0.8 µM.

As for `COc1cc(C(=O)O)cc(OC)c1O` [Compound 3, syringic acid], the inhibition at 100 µM stood at 11.6 ± 0.1%.

For the compound `O=c1c(O[C@@H]2O[C@H](CO)[C@@H](O)[C@H](O)[C@H]2O)c(-c2ccc(O)c(O)c2)oc2cc(O)cc(O)c12` [Compound 4, isoquercitrin], the inhibition at 100 µM is 1.8 ± 5.9%.

For the origin of these results see paper PMC7072302 (Biomolecules, 2020).
